Data reported in a compilation of properties of binary mixtures (doi:10.1021/je901058s).

Test: xn = mol fraction of the nth substance listed
Details: 101 kPa

CCCCCCCCn1cc[n+](C)c1.O=[N+]([O-])[O-] + CCCCO
viscosity [mPa·s]
Details	283.15 K	288.15 K	293.15 K	298.15 K	303.15 K	308.15 K	313.15 K	318.15 K	323.15 K	328.15 K
x2 = 0.168	–	530	380	277	207	158	–	97.4	73.2	48.9
x2 = 0.261	440	311	229	172	132	103	78.5	63.4	51.6	35.5
x2 = 0.358	241	179	–	105	80.6	–	–	–	35.7	25.5
x2 = 0.458	126	98.8	74.2	–	–	39.3	32.6	27.3	–	–
x2 = 0.57	59.4	47.4	–	–	26.4	22.29	18.98	16.3	–	10.88
x2 = 0.676	29.9	24.7	–	17.43	–	–	11.15	9.75	–	6.84
x2 = 0.754	18.67	15.69	13.36	11.44	9.92	8.74	7.63	6.76	5.98	4.76
x2 = 0.848	10.45	9.03	–	–	5.92	5.15	4.56	4.03	–	2.93

CCCCCCCCn1cc[n+](C)c1.O=[N+]([O-])[O-] + CCCO
viscosity [mPa·s]
Details	283.15 K	288.15 K	293.15 K	298.15 K	303.15 K	308.15 K	313.15 K	318.15 K	323.15 K	328.15 K
x2 = 0.107	1091	730	510	365	267	201	153	120	95.4	–
x2 = 0.258	490	–	258	191	–	113	86.9	–	53.4	36.5
x2 = 0.364	218	164	127	99.7	–	63	51.1	42.1	35	25
x2 = 0.47	114	85.8	–	60	48.5	39.7	–	27.6	23.44	17.34
x2 = 0.556	65.4	–	–	34.4	28.6	–	20.38	17.44	15.08	–
x2 = 0.671	28.8	23.8	–	16.84	14.41	12.45	–	–	8.41	6.55
x2 = 0.756	16.16	13.66	11.67	10.07	8.77	7.63	6.75	5.93	5.21	4.2
x2 = 0.866	7.84	6.8	5.85	–	4.48	3.94	3.52	3.14	2.82	2.31

CCCCCCCCn1cc[n+](C)c1.O=[N+]([O-])[O-] + CCO
viscosity [mPa·s]
Details	283.15 K	288.15 K	293.15 K	298.15 K	303.15 K	308.15 K	313.15 K	318.15 K	323.15 K	328.15 K
x2 = 0.128	970	660	460	333	246	185	143	–	81.4	–
x2 = 0.266	380	266	198	150	116	89.1	68.9	55.9	45.9	32
x2 = 0.357	216	–	124	97	73.4	58.4	48.3	–	33.3	–
x2 = 0.455	102	76.2	–	47.5	38.3	31.2	25.8	–	18.59	14.08
x2 = 0.554	–	38.6	31.5	26.1	–	18.4	15.71	13.53	11.78	–
x2 = 0.662	24.8	20.62	17.19	14.52	12.44	10.83	9.55	8.69	7.83	6.2
x2 = 0.767	11.64	9.86	–	–	–	5.72	–	4.46	3.99	3.27
x2 = 0.868	5.09	–	3.97	3.49	3.13	2.8	2.53	2.3	2.1	1.77
